This assay relates to Staphylococcus aureus NCTC8325. Briefly: Time-kill kinetics (cfu assay). Type of assay: cell-based. Conditions: SC5005 4×MIC, 1 mg/L; FIG. 1. Here is the method: The number of viable bacteria in broth after each exposure period was enumerated by a cfu assay and expressed as cfu/mL; the data shown are the mean±SD (standard deviation) of independent experiments. […] The number of viable bacteria in the broth after each exposure period was calculated by a cfu assay (cfu/mL); the data are shown as the mean±SD of three independent experiments (n=3 for each group). Since the standard deviation of each point is very small, the error line is not shown in each graph. The horizontal dashed line in the upper left graph and the upper right graph represents […] of the bacterial cells killed. In addition, the blank controls in FIG. 1 are shown as filled diamonds.
In this experiment, the inventor analyzed the time-kill kinetics of SC5005, DHA, and a combination thereof against Staphylococcus aureus NCTC8325 and MRSA USA300, and the results are shown in FIG. 1. It can be seen in FIG. 1 that SC5005 killed more than 99.9% of the bacteria within 24 hours. […] Besides, it is well known in the art that Staphylococcus aureus can enter a dormant state (i.e., become the so-called persister cells) and develop resistance to antibiotic treatment, thus leading to repeated bacterial infections.

Each structure is given as a SMILES string.

We go through one molecule from patent publication US20260130885A1, “ANTIMICROBIAL COMPOSITIONS, PHARMACEUTICAL COMPOSITIONS AND USE THEREOF” (priority 2022, published 2026).

For the molecule `O=C(Nc1ccc(Cl)c(C(F)(F)F)c1)C(CCCl)C(=O)Nc1ccc(Cl)c(C(F)(F)F)c1` [SC5005], the “bacteria killed within 24 hours” value is on record as “more than 99.9%”.
